Legend:
[1] = molecular target: Fibroblast growth factor receptor 2 (Homo sapiens) (UniProt P21802); details: Compound concentration 1000.0 nM
[2] = test system: Mast/stem cell growth factor receptor Kit (Homo sapiens), P10721 [L576P]; details: Compound concentration 1000.0 nM
[3] = molecular target: Serine/threonine-protein kinase MRCK gamma (Homo sapiens) (UniProt Q6DT37); details: Compound concentration 1000.0 nM
[4] = molecular target: Dual specificity protein kinase TTK (Homo sapiens) (UniProt P33981); details: Compound concentration 1000.0 nM
[5] = molecular target: Tyrosine-protein kinase TXK (Homo sapiens) (UniProt P42681); details: Compound concentration 1000.0 nM
[6] = molecular target: Hepatocyte growth factor receptor (Homo sapiens) (UniProt P08581); details: Compound concentration 1000.0 nM
[7] = molecular target: Activin receptor type-1-like (Homo sapiens) (UniProt P37023); details: Compound concentration 1000.0 nM
Chain of Activin receptor type-1-like (Homo sapiens) (P37023 whole entry): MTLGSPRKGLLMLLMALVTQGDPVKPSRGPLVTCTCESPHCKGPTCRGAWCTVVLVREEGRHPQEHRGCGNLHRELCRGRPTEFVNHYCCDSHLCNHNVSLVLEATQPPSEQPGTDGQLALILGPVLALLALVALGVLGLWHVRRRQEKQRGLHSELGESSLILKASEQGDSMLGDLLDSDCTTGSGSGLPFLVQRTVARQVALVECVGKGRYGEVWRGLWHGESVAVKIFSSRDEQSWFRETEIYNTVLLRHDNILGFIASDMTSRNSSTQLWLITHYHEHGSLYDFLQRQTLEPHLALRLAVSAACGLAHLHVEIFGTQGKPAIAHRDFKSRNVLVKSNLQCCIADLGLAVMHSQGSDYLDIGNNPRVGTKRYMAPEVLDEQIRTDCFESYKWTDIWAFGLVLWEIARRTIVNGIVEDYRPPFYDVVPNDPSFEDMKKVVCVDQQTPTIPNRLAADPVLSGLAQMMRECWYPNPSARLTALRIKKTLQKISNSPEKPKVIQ

[8] = molecular target: Myotonin-protein kinase (Homo sapiens) (UniProt Q09013); details: Compound concentration 1000.0 nM
[9] = test system: eIF-2-alpha kinase GCN2 (Homo sapiens), Q9P2K8 [S808G]; details: Compound concentration 1000.0 nM
[10] = molecular target: Serine/threonine-protein kinase PAK 2 (Homo sapiens) (UniProt Q13177); details: Compound concentration 1000.0 nM
Chain of Serine/threonine-protein kinase PAK 2 (Homo sapiens) (Q13177 whole entry): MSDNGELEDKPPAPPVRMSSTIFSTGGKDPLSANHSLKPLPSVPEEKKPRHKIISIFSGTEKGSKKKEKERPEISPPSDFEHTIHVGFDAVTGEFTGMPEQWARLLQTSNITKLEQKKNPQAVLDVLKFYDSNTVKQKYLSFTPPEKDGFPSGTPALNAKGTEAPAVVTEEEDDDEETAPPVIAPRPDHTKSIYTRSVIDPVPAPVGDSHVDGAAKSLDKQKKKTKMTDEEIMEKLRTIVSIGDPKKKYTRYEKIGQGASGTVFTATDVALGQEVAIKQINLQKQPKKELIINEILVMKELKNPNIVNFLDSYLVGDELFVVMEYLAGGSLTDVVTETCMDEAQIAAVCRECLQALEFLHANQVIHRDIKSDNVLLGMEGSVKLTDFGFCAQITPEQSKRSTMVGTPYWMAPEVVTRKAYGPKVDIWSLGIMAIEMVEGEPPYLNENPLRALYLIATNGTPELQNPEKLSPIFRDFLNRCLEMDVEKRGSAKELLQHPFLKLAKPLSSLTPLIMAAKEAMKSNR

[11] = molecular target: Mitogen-activated protein kinase 3 (Homo sapiens) (UniProt P27361); details: Compound concentration 1000.0 nM
[12] = molecular target: Histamine H4 receptor (Homo sapiens) (UniProt Q9H3N8); details: Compound concentration 10.0 uM
[13] = molecular target: Mitogen-activated protein kinase 7 (Homo sapiens) (UniProt Q13164); details: Compound concentration 1000.0 nM
[14] = molecular target: ALK tyrosine kinase receptor (Homo sapiens) (UniProt Q9UM73); details: Compound concentration 1000.0 nM
[15] = molecular target: Serine/threonine-protein kinase PAK 3 (Homo sapiens) (UniProt O75914); details: Compound concentration 1000.0 nM
[16] = test system: Phosphatidylinositol 4,5-bisphosphate 3-kinase catalytic subunit alpha isoform (Homo sapiens), P42336 [C420R]; details: Compound concentration 1000.0 nM
[17] = molecular target: Ephrin type-A receptor 8 (Homo sapiens) (UniProt P29322); details: Compound concentration 1000.0 nM
[18] = molecular target: Cyclin-dependent kinase 2 homolog (Plasmodium falciparum (isolate 3D7)) (UniProt P61075); details: Compound concentration 1000.0 nM
[19] = test system: Epidermal growth factor receptor (Homo sapiens), P00533 [T790M]; details: Compound concentration 1000.0 nM
[20] = molecular target: Casein kinase II subunit alpha (Homo sapiens) (UniProt P68400); details: Compound concentration 1000.0 nM
[21] = molecular target: D(2) dopamine receptor (Homo sapiens) (UniProt P14416); details: Compound concentration 10.0 uM
[22] = molecular target: TGF-beta receptor type-2 (Homo sapiens) (UniProt P37173); details: Compound concentration 1000.0 nM
[23] = molecular target: Mitogen-activated protein kinase kinase kinase kinase 3 (Homo sapiens) (UniProt Q8IVH8); details: Compound concentration 1000.0 nM
[24] = molecular target: Serine/threonine-protein kinase SIK2 (Homo sapiens) (UniProt Q9H0K1); details: Compound concentration 1000.0 nM
[25] = test system: Tyrosine-protein kinase ABL1 (Homo sapiens), P00519 [F317L]; details: Compound concentration 1000.0 nM
[26] = molecular target: cAMP-dependent protein kinase catalytic subunit PRKX (Homo sapiens) (UniProt P51817); details: Compound concentration 1000.0 nM
[27] = molecular target: Phosphatidylinositol 4,5-bisphosphate 3-kinase catalytic subunit delta isoform (Homo sapiens) (UniProt O00329); details: Compound concentration 1000.0 nM
Chain of Phosphatidylinositol 4,5-bisphosphate 3-kinase catalytic subunit delta isoform (Homo sapiens) (O00329 whole entry, canonical isoform): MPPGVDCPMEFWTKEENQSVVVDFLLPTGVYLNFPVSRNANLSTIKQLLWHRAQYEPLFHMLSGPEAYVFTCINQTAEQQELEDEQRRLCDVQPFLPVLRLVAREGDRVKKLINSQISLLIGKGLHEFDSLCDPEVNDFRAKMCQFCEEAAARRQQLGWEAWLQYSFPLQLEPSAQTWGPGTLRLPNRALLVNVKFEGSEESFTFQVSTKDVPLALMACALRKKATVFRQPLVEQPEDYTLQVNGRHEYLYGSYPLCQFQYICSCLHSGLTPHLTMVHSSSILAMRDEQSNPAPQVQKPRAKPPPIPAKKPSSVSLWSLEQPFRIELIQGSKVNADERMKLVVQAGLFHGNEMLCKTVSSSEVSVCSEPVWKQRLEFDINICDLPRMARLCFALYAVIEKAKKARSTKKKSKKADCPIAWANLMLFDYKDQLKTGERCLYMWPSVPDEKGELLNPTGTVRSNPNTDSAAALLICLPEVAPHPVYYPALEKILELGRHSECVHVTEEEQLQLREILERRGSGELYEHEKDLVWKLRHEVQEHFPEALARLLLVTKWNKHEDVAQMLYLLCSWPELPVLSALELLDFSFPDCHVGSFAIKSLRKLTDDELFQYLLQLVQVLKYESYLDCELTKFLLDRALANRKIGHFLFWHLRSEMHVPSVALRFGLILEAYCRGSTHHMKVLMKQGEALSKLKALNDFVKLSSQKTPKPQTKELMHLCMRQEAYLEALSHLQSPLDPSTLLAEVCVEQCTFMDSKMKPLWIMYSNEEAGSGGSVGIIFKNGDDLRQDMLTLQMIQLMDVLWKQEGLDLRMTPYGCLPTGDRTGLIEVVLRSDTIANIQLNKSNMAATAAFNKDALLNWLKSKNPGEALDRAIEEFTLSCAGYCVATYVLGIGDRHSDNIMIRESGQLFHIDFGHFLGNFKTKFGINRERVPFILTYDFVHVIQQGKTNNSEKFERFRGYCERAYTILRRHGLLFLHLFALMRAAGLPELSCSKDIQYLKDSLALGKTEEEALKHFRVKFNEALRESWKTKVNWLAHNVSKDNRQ

[28] = molecular target: Serine/threonine-protein kinase WNK1 (Homo sapiens) (UniProt Q9H4A3); details: Compound concentration 1000.0 nM
[29] = molecular target: Phosphatidylinositol 5-phosphate 4-kinase type-2 beta (Homo sapiens) (UniProt P78356); details: Compound concentration 1000.0 nM
[30] = molecular target: Tyrosine-protein kinase receptor Tie-1 (Homo sapiens) (UniProt P35590); details: Compound concentration 1000.0 nM
[31] = molecular target: Mitogen-activated protein kinase 8 (Homo sapiens) (UniProt P45983); details: Compound concentration 1000.0 nM
[32] = molecular target: Ribosomal protein S6 kinase alpha-1 (Homo sapiens) (UniProt Q15418); details: Compound concentration 1000.0 nM
[33] = molecular target: Homeodomain-interacting protein kinase 2 (Homo sapiens) (UniProt Q9H2X6); details: Compound concentration 1000.0 nM
Chain of Homeodomain-interacting protein kinase 2 (Homo sapiens) (Q9H2X6 whole entry, looked up): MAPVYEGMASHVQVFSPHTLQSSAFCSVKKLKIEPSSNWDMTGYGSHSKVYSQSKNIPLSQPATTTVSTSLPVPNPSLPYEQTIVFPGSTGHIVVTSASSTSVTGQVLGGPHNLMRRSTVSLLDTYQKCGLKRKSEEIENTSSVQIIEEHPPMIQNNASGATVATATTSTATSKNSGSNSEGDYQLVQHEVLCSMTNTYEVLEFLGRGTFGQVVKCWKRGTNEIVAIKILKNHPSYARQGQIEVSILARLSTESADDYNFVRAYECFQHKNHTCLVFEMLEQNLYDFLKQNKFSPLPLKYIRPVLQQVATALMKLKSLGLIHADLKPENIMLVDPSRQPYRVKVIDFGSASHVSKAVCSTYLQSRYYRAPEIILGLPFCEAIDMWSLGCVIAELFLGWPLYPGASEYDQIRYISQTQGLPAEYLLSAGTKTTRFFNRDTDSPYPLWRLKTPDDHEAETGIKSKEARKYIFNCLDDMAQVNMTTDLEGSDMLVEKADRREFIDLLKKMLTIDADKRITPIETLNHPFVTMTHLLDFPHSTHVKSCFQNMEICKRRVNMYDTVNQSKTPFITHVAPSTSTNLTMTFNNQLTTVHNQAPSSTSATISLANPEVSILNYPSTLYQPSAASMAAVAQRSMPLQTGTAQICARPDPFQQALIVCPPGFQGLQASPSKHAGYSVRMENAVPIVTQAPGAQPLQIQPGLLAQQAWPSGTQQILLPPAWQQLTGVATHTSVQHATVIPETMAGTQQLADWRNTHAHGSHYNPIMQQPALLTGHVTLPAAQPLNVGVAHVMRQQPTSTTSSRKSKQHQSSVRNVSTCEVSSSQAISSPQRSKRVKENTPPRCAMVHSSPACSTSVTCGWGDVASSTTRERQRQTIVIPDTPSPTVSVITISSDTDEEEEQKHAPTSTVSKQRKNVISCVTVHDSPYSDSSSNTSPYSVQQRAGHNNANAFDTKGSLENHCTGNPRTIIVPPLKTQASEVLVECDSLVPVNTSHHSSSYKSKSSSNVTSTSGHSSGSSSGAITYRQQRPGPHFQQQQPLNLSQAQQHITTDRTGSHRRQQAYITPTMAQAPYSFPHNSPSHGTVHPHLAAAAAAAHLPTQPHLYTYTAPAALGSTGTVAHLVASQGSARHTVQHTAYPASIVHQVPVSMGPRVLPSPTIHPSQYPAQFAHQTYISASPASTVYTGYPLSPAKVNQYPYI

[34] = molecular target: 5-hydroxytryptamine receptor 6 (Homo sapiens) (UniProt P50406); details: Compound concentration 10.0 uM
[35] = molecular target: Alpha-2C adrenergic receptor (Homo sapiens) (UniProt P18825); details: Compound concentration 10.0 uM
[36] = molecular target: Glycogen synthase kinase-3 beta (Homo sapiens) (UniProt P49841); details: Compound concentration 1000.0 nM
[37] = molecular target: T1, Alpha-1A adrenergic receptor (Homo sapiens) (UniProt P35348); details: Compound concentration 10.0 uM
T1 sequence (whole entry): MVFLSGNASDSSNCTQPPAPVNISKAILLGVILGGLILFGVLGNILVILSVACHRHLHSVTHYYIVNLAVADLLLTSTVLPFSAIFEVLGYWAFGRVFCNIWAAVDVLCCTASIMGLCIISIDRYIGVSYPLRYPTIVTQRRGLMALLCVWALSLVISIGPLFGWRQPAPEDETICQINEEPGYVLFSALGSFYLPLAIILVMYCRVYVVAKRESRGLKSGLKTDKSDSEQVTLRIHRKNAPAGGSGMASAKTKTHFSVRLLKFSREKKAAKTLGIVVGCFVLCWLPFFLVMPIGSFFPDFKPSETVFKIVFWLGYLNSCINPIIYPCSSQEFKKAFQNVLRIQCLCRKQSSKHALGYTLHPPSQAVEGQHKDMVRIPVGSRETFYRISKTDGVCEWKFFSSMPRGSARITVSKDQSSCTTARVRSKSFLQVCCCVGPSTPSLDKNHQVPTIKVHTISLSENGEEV

[38] = molecular target: Cyclin-dependent kinase 4 (Homo sapiens) (UniProt P11802); details: Compound concentration 1000.0 nM
[39] = molecular target: Aurora kinase A (Homo sapiens) (UniProt O14965); details: Compound concentration 1000.0 nM

Chain of Fibroblast growth factor receptor 2 (Homo sapiens) (P21802 22-821 limits assumed): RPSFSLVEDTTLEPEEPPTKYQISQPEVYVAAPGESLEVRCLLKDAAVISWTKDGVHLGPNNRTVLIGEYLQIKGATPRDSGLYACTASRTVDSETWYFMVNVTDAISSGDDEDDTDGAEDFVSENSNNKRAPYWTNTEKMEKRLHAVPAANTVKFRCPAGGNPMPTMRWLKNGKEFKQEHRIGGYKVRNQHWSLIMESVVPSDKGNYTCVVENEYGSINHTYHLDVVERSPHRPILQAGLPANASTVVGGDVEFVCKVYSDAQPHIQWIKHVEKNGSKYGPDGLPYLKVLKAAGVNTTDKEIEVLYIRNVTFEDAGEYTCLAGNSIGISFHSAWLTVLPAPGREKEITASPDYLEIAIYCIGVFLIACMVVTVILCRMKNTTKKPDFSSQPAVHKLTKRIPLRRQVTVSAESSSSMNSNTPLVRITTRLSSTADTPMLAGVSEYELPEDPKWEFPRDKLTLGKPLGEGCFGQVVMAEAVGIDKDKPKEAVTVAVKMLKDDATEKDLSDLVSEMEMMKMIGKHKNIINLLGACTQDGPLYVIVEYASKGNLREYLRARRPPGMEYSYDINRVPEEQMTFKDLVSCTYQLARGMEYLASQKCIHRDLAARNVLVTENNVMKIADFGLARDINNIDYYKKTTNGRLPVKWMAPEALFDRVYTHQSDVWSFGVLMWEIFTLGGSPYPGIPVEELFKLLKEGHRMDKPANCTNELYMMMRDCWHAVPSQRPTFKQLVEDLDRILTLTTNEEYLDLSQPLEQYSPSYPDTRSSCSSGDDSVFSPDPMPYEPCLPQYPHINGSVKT
Chain of Mast/stem cell growth factor receptor Kit (Homo sapiens), P10721 [L576P] (P10721 whole entry L576P): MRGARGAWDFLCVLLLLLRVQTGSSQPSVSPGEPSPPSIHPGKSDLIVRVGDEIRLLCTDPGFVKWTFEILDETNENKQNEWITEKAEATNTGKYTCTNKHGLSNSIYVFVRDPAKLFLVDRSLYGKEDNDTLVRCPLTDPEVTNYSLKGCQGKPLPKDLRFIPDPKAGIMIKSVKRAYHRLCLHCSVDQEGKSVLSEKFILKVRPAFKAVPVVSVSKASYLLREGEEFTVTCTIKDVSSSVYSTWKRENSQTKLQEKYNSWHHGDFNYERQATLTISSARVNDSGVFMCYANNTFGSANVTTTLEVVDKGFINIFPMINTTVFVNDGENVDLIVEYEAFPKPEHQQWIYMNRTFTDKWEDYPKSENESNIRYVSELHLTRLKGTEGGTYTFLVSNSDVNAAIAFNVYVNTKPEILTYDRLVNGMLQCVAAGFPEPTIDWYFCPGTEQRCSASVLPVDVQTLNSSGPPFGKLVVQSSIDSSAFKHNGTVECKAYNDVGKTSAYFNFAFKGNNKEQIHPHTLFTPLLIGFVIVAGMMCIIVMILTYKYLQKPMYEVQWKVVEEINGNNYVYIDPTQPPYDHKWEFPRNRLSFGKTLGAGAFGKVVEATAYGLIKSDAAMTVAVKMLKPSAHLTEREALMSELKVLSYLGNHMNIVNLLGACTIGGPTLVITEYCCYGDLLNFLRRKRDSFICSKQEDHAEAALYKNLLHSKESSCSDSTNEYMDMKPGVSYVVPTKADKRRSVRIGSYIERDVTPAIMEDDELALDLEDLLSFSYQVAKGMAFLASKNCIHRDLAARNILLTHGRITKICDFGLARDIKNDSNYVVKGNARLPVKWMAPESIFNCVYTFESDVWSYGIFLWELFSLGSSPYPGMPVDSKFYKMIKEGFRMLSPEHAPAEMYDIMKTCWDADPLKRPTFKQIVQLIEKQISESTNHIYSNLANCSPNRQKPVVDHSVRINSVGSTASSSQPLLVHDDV

For NS(=O)(=O)c1cc(NC(=O)Cc2ccccc2)ccc1Oc1cccc(Cl)c1 [BAY-1797], which residual activity [1] is on record?
Its residual activity is 61%.

And the residual activity [2]?
Its residual activity is 78%.

What about the residual activity [3] of the same compound?
The residual activity was 100%.

And the residual activity [4]?
The residual activity was 91%.

What about the residual activity [5] of the same compound?
Its residual activity is 92%.

And the residual activity [6]?
Its residual activity is 91%.

What about the residual activity [7] of the same compound?
Its residual activity is 99%.

What about the residual activity [8] of the same compound?
The residual activity was 100%.

What about the residual activity [9] of the same compound?
The residual activity was 100%.

And the residual activity [10]?
Its residual activity is 91%.

What about the residual activity [11] of the same compound?
The residual activity was 94%.

What about the inhibition [12] of the same compound?
Its inhibition is -3.13%.

What about the residual activity [13] of the same compound?
Its residual activity is 83%.

What about the residual activity [14] of the same compound?
The residual activity was 100%.

What about the residual activity [15] of the same compound?
The residual activity was 85%.

And the residual activity [16]?
Its residual activity is 62%.

What about the residual activity [17] of the same compound?
Its residual activity is 100%.

What about the residual activity [18] of the same compound?
The residual activity was 100%.

And the residual activity [19]?
Its residual activity is 100%.

What about the residual activity [20] of the same compound?
The residual activity was 96%.

What about the inhibition [21] of the same compound?
Its inhibition is -7.81%.

What about the residual activity [22] of the same compound?
The residual activity was 87%.

And the residual activity [23]?
Its residual activity is 100%.

And the residual activity [24]?
The residual activity was 100%.

And the residual activity [25]?
The residual activity was 72%.

And the residual activity [26]?
The residual activity was 91%.

And the residual activity [27]?
The residual activity was 93%.

And the residual activity [28]?
Its residual activity is 89%.

And the residual activity [29]?
The residual activity was 89%.

What about the residual activity [30] of the same compound?
Its residual activity is 100%.

And the residual activity [31]?
The residual activity was 69%.

And the residual activity [32]?
Its residual activity is 91%.

And the residual activity [33]?
The residual activity was 62%.

What about the inhibition [34] of the same compound?
Its inhibition is 17.2%.

And the inhibition [35]?
The inhibition was 18.2%.

What about the residual activity [36] of the same compound?
Its residual activity is 80%.

What about the inhibition [37] of the same compound?
Its inhibition is 5.04%.

What about the residual activity [38] of the same compound?
Its residual activity is 88%.

What about the residual activity [39] of the same compound?
The residual activity was 69%.

For NS(=O)(=O)c1cc(NC(=O)C2(c3ccccc3Cl)CC2)ccc1Oc1cccc(Cl)c1 [BAY-207], which residual activity [1] is on record?
The residual activity was 100%.

And the residual activity [2]?
Its residual activity is 89%.

What about the residual activity [3] of the same compound?
The residual activity was 82%.

And the residual activity [4]?
Its residual activity is 100%.

And the residual activity [5]?
The residual activity was 90%.

What about the residual activity [6] of the same compound?
The residual activity was 81%.

And the residual activity [7]?
Its residual activity is 45%.

What about the residual activity [8] of the same compound?
Its residual activity is 79%.

And the residual activity [9]?
Its residual activity is 76%.

What about the residual activity [10] of the same compound?
Its residual activity is 100%.

What about the residual activity [11] of the same compound?
The residual activity was 76%.

And the inhibition [12]?
Its inhibition is 0.09%.

What about the residual activity [13] of the same compound?
Its residual activity is 92%.

And the residual activity [14]?
Its residual activity is 85%.

What about the residual activity [15] of the same compound?
Its residual activity is 64%.

What about the residual activity [16] of the same compound?
Its residual activity is 100%.

And the residual activity [17]?
The residual activity was 80%.

What about the residual activity [18] of the same compound?
The residual activity was 93%.

And the residual activity [19]?
Its residual activity is 100%.

What about the residual activity [20] of the same compound?
Its residual activity is 100%.

What about the inhibition [21] of the same compound?
Its inhibition is -9.74%.

What about the residual activity [22] of the same compound?
The residual activity was 64%.

And the residual activity [23]?
The residual activity was 100%.

And the residual activity [24]?
Its residual activity is 100%.

What about the residual activity [25] of the same compound?
Its residual activity is 71%.

And the residual activity [26]?
Its residual activity is 77%.

And the residual activity [27]?
Its residual activity is 99%.

And the residual activity [28]?
The residual activity was 88%.

And the residual activity [29]?
The residual activity was 62%.

What about the residual activity [30] of the same compound?
The residual activity was 85%.

What about the residual activity [31] of the same compound?
The residual activity was 100%.

What about the residual activity [32] of the same compound?
Its residual activity is 98%.

And the residual activity [33]?
Its residual activity is 88%.

What about the inhibition [34] of the same compound?
Its inhibition is -4.73%.

And the inhibition [35]?
The inhibition was 89.6%.

And the residual activity [36]?
The residual activity was 100%.

What about the inhibition [37] of the same compound?
Its inhibition is 15.1%.

And the residual activity [38]?
The residual activity was 100%.

And the residual activity [39]?
Its residual activity is 100%.
